Assay results from PubChem BioAssay AID1891 (Broad Institute, 2009).
Active and inactive are the calls of the source. The rule behind the calls is not given here.

molecular target: Luciferin 4-monooxygenase (Photinus pyralis) (UniProt P08659); test: inhibition of purified Photinus pyralis luciferase – biochemical, luminescence, dose response (AID 1891); details: purified firefly luciferase

Row | Structure (SMILES) | IC50
1 | CCNC(=O)[C@H]1O[C@@H](n2cnc3c(N)ncnc32)[C@H](O)[C@@H]1O | > 11.2 µM (inactive)
2 | CCNC(=O)C1OC(n2cnc3c(N)ncnc32)C(O)C1O (centres undefined) | > 11.2 µM (inactive)
3 | Nc1ncnc2c1ncn2[C@@H]1O[C@H](CO)[C@@H](O)[C@H]1O | > 11.2 µM (inactive)
4 | Nc1ncnc2c1ncn2C1OC(CO)C(O)C1O (centres undefined) | > 11.2 µM (inactive)
